Laboratory results as given in patent publication US12133846B2, “Electrophilic androgen receptor (AR) antagonists for AR downregulation and ferroptosis induction in cancer cells” (priority 2019, dated 2024).
“And” between values parts separate entries of the source, which are not always exact repeats. Equal values may be shown once.

Legend:
VCaP cells = assay: MTT viability assay, VCaP cells; format: cell-based; details: Homo sapiens, VCaP; 72 h, full media, MTT; read-out: IC50, viability of VCaP cells
Excerpt: (§1) Biological Characterization. ITC-ARi hybrid drugs effectively reduce the viability of PCa cells. By using an MTT assay, it was first examined if the newly synthesized hybrid drugs affect the viability of CRPC-relevant PCa cells. PCa VCaP cells naturally express abundant wild type FL AR as well as AR splice variants (e.g., AR-V7). These cells were, therefore, used as one of the cell culture models in this work to investigate the drug-caused viability loss and AR downregulation.

22Rv1 cells = assay: MTT viability assay, 22Rv1 cells; format: cell-based; details: 5 μM, 72 h
Excerpt: as §1

C4-2 cells = assay: MTT viability assay, C4-2 cells; format: cell-based; details: 5 μM, 72 h
Excerpt: as §1

LNCaP and RWPE-1 cells = assay: MTT viability, PCa LNCaP versus non-cancerous RWPE-1 cells; format: cell-based; details: 72 h, 2.5 to 10 μM
Excerpt: Because of the better selectivity and water solubility of 2-63 over 12b, 2-63 was used for further in vitro characterization and mechanistic studies.

[1] = test system: AR transcriptional activity in MDA-kb2 cells; assay: cells; format: cell-based; details: DHT 1 nM
Description: MDA-kb2-cell-based ARE luciferase assays were performed to assess the influence of 2-63 and related compounds on AR transcriptional activity. […] Upon androgen stimulation and addition of a luciferase substrate, […], and the intensity is proportional to the extent of AR activation. An agent that either antagonistically competes with DHT for AR binding or reduces the expression of AR diminishes luciferase activity/fluorescence signal in this experimental system. […] 10b (an alcohol) and 11 b (an azide) are synthetic precursors of the ITC hybrid 12b.
Luciferase Assay. […] For all procedures, cells were incubated at CO2 free condition. Steady-Glo® (Promega Corp., Madison, WI) reagent was added to culture media with shaking for 10 min. Samples (100 μL) were transferred to an opaque 96-well white plate, and luminescence was measured using a luminometer.

FL AR and AR-V7 [2] = biological target: T1, FL AR and AR-V7 (Homo sapiens, UniProt P10275); assay: Western blotting of FL AR and AR-V7 in VCaP cells; format: cell-based; details: full media, 16 h, 2-63, 12b 5 and 15 μM, Enz 10 μM, SAHA 1 μM
T1 construct: Whole cell lysates were subjected to Western blotting and probed with the indicated antibodies; endogenous in cells; host or cells: VCaP
T1 sequence (P10275 1-920): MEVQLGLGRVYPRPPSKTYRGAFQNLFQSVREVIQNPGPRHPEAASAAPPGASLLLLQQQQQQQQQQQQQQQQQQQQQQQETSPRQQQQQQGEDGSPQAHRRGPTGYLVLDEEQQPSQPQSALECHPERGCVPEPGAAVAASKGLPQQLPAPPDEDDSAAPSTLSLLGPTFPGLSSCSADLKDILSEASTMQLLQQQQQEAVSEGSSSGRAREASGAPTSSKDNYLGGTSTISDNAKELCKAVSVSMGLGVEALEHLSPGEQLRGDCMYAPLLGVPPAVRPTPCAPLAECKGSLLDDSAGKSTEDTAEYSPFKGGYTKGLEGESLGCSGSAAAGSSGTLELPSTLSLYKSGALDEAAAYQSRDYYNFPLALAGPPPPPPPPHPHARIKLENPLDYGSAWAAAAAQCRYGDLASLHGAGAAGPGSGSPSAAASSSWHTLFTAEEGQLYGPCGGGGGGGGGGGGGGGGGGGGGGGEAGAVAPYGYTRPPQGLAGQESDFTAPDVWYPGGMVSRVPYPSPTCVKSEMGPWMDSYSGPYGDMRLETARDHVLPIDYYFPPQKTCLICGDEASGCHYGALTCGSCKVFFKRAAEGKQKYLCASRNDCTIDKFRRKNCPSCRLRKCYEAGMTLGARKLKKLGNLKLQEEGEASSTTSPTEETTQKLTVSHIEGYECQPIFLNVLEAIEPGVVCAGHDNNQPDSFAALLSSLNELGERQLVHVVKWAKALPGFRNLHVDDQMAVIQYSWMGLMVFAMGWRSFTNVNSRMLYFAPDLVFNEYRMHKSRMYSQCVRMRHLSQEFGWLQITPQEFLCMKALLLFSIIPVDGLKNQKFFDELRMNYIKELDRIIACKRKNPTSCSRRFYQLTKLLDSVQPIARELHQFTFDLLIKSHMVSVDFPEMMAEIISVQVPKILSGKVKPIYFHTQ
Description: (§2) Western Blotting. […] Proteins in cell lysates (40 μg) were separated using electrophoresis on SDS-PAGE and transferred onto PVDF (polyvinylidenedifluoride) membranes. Membranes were blocked in 5% fat-free milk followed by incubation with primary antibodies overnight at 4° C., and the secondary horseradish peroxidase-conjugated anti-rabbit or anti-mouse antibodies. The blots were developed in the Enhanced Chemiluminescence mixture and detected by ImageQuant™ LAS 4000 imaging system (GE). Density of protein bonds were calculated and analyzed by using imageJ software downloaded from the National Institute of Health website.

FL AR and AR-V7 [3] = biological target: T2, FL AR and AR-V7 (Homo sapiens, UniProt P10275); assay: Western blotting of FL AR and AR-V7 in VCaP cells; format: cell-based; details: full media, 16 h, 2-63, 12b 5 and 15 μM, Enz 10 μM
T2 construct: Whole cell lysates were subjected to Western blotting and probed with the indicated antibodies; endogenous in cells; host or cells: VCaP
T2 sequence (P10275 1-644 isoform P10275-3): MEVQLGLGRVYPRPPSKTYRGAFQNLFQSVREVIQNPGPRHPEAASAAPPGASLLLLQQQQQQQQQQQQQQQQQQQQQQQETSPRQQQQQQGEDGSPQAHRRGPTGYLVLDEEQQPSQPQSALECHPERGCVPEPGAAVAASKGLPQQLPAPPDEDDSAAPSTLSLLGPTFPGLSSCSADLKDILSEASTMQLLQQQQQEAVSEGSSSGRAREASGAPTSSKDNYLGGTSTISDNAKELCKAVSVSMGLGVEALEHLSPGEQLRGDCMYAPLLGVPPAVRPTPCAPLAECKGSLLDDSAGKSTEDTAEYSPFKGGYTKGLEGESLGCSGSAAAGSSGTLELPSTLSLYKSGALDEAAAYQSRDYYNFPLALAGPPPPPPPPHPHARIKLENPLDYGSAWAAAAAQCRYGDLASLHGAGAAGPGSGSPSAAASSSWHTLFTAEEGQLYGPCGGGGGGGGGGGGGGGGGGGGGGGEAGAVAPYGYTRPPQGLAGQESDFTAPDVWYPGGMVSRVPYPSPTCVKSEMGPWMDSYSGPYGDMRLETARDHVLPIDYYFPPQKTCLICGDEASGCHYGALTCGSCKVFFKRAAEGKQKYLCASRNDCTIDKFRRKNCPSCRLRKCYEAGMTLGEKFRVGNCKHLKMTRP
Description: as §2

[4] = test system: acetylation of α-tubulin and histone H3 (markers for HDAC6 and nuclear HDAC inhibition); assay: Western blotting of acetylation markers in VCaP cells; format: cell-based; details: 16 h, 2-63 and 12b 5 and 15 μM, SAHA 1 μM
Description: as §2

Hsp90, Hsp70, HO-1 = assay: Western blotting of Hsp90, Hsp70 and HO-1 in VCaP cells; format: cell-based; details: 16 h, 5 and 15 μM
Description: as §2

RWPE-1 cells = assay: BSO pretreatment plus 2-63, MTT viability, RWPE-1 cells; details: BSO up to 100 μM
Description: Cell viability was then assessed using an MTT assay.
PCa cells (6×10^3 cells/well) were seeded into 96-well plates overnight and then treated with indicated compounds at indicated concentrations and time durations. The MTT (3-(4, 5-Dimethylthiazol-2-yl)-2,5-diphenyltetrazolium bromide) assay was performed according to the standard protocol. Briefly, MTT (0.5 mg/mL) was incubated with cells at 37° C. for 3 hours. Supernatant was removed, followed by the addition of dimethyl DMSO (100 μl). After incubation for 30 minutes at 37° C., absorbance was read at 570 nm on a microplate reader.

Row | SMILES | IC50 (VCaP cells) | relative potency in viability reduction, 22Rv1 cells (22Rv1 cells) | relative potency in viability reduction, C4-2 cells (C4-2 cells) | differential anti-proliferative effect, LNCaP vs RWPE-1 cells (LNCaP and RWPE-1 cells) | AR inhibition at 1 μM relative to Enz, 10b and 11b ([1]; 1 μM) | suppression of DHT-stimulated luciferase activity ([1]; 1-5 μM) | AR inhibition at higher concentrations relative to comparators ([1]; 2.5 and 5 μM) | FL AR expression (FL AR and AR-V7 [2]) | AR-V7 expression (FL AR and AR-V7 [3]) | histone H3 acetylation [4] | α-tubulin acetylation ([4]; SFN 15 μM) | Hsp70 protein level (Hsp90, Hsp70, HO-1) | Hsp90 protein level (Hsp90, Hsp70, HO-1) | enhancement of the potency of 2-63 by BSO in RWPE-1 cells (RWPE-1 cells)
1 | CC1(C)C(=O)N(c2ccc(C#N)c(C(F)(F)F)c2)C(=S)N1c1ccc(CCCCCCN=C=S)nc1 [12b, 4-(3-(6-(6-Isothiocyanatohexyl)pyridin-3-yl)-4,4-dimethyl-5-oxo-2-thioxoimidazolidin-1-yl)-2-(trifluoromethyl) benzonitrile] | 3.89 µM | more effective than 12a and 12b>2-63>PEITC-NAC | more effective than 12a and 12b>2-63>PEITC-NAC | almost equally suppressed | less effective | decreased luciferase activity in a dose-dependent manner | similarly with these non-ITC-containing compounds | seemed to be more effective | seemed to be more effective | did not show significant effects | did not show significant effects | significantly induced | did not change | –
2 | CCCCS(=N)(=O)CCC(N)C(=O)O [BSO, L-buthionine sulfoximine, reference compound] | – | – | – | – | – | – | – | – | – | – | – | – | – | does not notably enhance
